Assay: Dynamic Laser Light Scattering (DLLS) analysis of supramolecular aggregation
Type: physicochemical
Experimental: Dynamic Laser Light Scattering (DLLS) was carried out on a Zetasizer Nano S from Malvern Instruments. DLLS is used for measuring the size of the microemulsion oil droplets or size of the supramolecular aggregates (% distribution function modality). Further characterization of supramolecular aggregation is given by the correlation coefficient function modality analysis of the Dynamic Laser Light Scattering.
In order to monitor the level of molecular aggregation in solution, Dynamic Laser Light Scattering (DLLS) has been used. Using this technique, it is not necessary to dilute the sample.

CC(=O)O[C@@]12CO[C@@H]1C[C@H](O)[C@@]1(C)C(=O)[C@H](O)C3=C(C)[C@@H](OC(=O)[C@H](O)[C@@H](NC(=O)OC(C)(C)C)c4ccccc4)C[C@@](O)([C@@H](OC(=O)c4ccccc4)[C@H]21)C3(C)C [docetaxel]
Aggregation by DLLS (correlation coefficient function) (50 μg/ml in water): presence of aggregates | Aggregation by DLLS (correlation coefficient function) (50 μg/ml in water plus triacetin 10 mg/ml): greatly reduces supramolecular aggregation | Aggregation by DLLS (correlation coefficient function) (50 μg/ml in water plus triacetin 30 mg/ml): totally eliminates the presence of molecular aggregates

— patent publication US9468602B2, “Pharmaceutical microemulsion for preventing supramolecular aggregation of amphiphilic molecules” (AZAD Pharma AG, priority 2009, dated 2016)
